“Also recorded” adds a separate entry of the source. Like-named read-outs stand apart in the source and are kept apart here. Where a SMILES comes first, the peptide text is derived from it.
What was measured:
[1] = system: HepG2 cells; assay: MTT cell proliferation assay, HepG2; type: cell-based; details: 72 h, serum-free medium, 1 μM to 300 μM, means of at least 3 independent experiments (Figure 5a)
Protocol: (§1) To evaluate peptide growth inhibitory properties, 3000 (Huh7) and 4000 (HepG2) cells were seeded in triplicate in 96-well plates. After 24 h, media was changed for serum-free medium and increasing concentrations of peptide were added. After 72 h, 25 μL of 3-(4,5-Dimethylthiazol-2-yl)-2,5-diphenyltetrazolium bromide (MTT) reagent (5 mg/mL; Sigma Aldrich) was added to each well and, after 4-hour incubation, medium was carefully removed and cells were lysed in acidic isopropanol (24 : 1 HCl 1 N). Absorbance at 550 nm and 650 nm (reference wavelength) was measured using a plate spectrophotometer.
(§2) Figure 5 Antiproliferative properties of ML peptide on the tested cell lines. […] Data are means ± SEM of at least 3 independent experiments.

[2] = system: Huh7 cells; assay: MTT cell proliferation assay, Huh7; type: cell-based; details: 72 h, serum-free medium, 1 μM to 300 μM, means of at least 3 independent experiments (Figure 5b)
Protocol: as §1, §2

[3] = biological target: recombinant PACE4; details: in vitro inhibition, read-out: K i against recombinant PACE4, cited from earlier work
[4] = system: HT1080 cells; assay: MTT cell proliferation assay, HT1080; type: cell-based; details: 72 h, serum-free medium, 1 μM to 300 μM, means of at least 3 independent experiments (Figure 5c)

Row | SMILES | inhibition of cell proliferation relative to untreated cells [1] | inhibition of cell proliferation relative to untreated cells [2] | Ki ([3]; independently of the addition of the NOTA moiety) | inhibition of cell proliferation relative to untreated cells [4] | Ki [3]
1 | CC(=O)N[C@@H](CC(C)C)C(=O)N[C@@H](CC(C)C)C(=O)N[C@@H](CC(C)C)C(=O)N[C@@H](CC(C)C)C(=O)N[C@@H](CCCNC(=N)N)C(=O)N[C@H](C(=O)N[C@@H](CCCCN)C(=O)N[C@@H](CCCNC(=N)N)C(N)=O)C(C)C [ML peptide, Ac-LLLLRVKR-NH2] (Ac-LLLLRVKR-NH2) | dose-response inhibition of cell proliferation | dose-response inhibition of cell proliferation | 20 nM | dose-response inhibition of cell proliferation; also recorded: lowest response | 
2 | CC(=O)N[C@@H](CCCNC(=N)N)C(=O)N[C@@H](CC(C)C)C(=O)N[C@@H](CCCNC(=N)N)C(=O)N[C@@H](CC(C)C)C(=O)N[C@@H](CC(C)C)C(=O)N[C@@H](CCCCN)C(=O)N[C@H](C(=O)N[C@@H](CC(C)C)C(N)=O)C(C)C [scramble version of the ML peptide, Ac-RLRLLKVL-NH2, reference compound] (Ac-RLRLLKVL-NH2) | inactive | inactive |  | inactive | > 10000 nM

Reference: article PMC4465654, “Multi-Leu PACE4 Inhibitor Retention within Cells Is PACE4 Dependent and a Prerequisite for Antiproliferative Activity” (BioMed Research International, 2015)
